Data published in ChEMBL document CHEMBL2440076, “New triarylpyrazoles as broad-spectrum anticancer agents: design, synthesis, and biological evaluation” (Eur J Med Chem, 2013).

Columns and labels:
Type in all cases: functional
UACC-62 = test: Growth inhibition of human UACC62 cells after 48 hrs by sulforhodamine B assay; conditions: UACC-62, 48 h
M14 = test: Growth inhibition of human M14 cells after 48 hrs by sulforhodamine B assay; conditions: M14, 48 h
MDA-MB-468 = test: Growth inhibition of human MDA-MB-468 cells assessed as cell growth at 10 uM after 48 hrs by sulforhodamine B assay; conditions: MDA-MB-468, 48 h, read-out: Activity
SF-268 = test: Growth inhibition of human SF268 cells assessed as cell growth at 10 uM after 48 hrs by sulforhodamine B assay; conditions: SF-268, 48 h, read-out: Activity
OVCAR-5 = test: Growth inhibition of human OVCAR5 cells assessed as cell growth at 10 uM after 48 hrs by sulforhodamine B assay; conditions: OVCAR-5, 48 h, read-out: Activity
SK-MEL-2 [1] = test: Growth inhibition of human SK-MEL-2 cells assessed as cell growth at 10 uM after 48 hrs by sulforhodamine B assay; conditions: SK-MEL-2, 48 h, read-out: Activity
SNB-19 = test: Growth inhibition of human SNB19 cells after 48 hrs by sulforhodamine B assay; conditions: SNB-19, 48 h
SK-MEL-2 [2] = test: Growth inhibition of human SK-MEL-2 cells after 48 hrs by sulforhodamine B assay; conditions: SK-MEL-2, 48 h
SF-539 = test: Growth inhibition of human SF539 cells after 48 hrs by sulforhodamine B assay; conditions: SF-539, 48 h
BT-549 = test: Growth inhibition of human BT549 cells after 48 hrs by sulforhodamine B assay; conditions: BT-549, 48 h
SNB-75 = test: Growth inhibition of human SNB75 cells after 48 hrs by sulforhodamine B assay; conditions: SNB-75, 48 h
TK-10 = test: Growth inhibition of human TK10 cells after 48 hrs by sulforhodamine B assay; conditions: TK-10, 48 h; for CC50: read-out: LC50 (the source's name)

## COc1cc(-c2nn(-c3cccc(NC(=O)c4ccccc4)c3)cc2-c2ccncc2)ccc1Cl
UACC-62
  GI50: 0.692 µM
  LC50 (50% lethal concentration): > 100 µM
  TGI: > 100 µM
M14
  GI50: 0.575 µM
  LC50 (concentration killing 50% of cells): > 100 µM
  TGI: 12.9 µM
MDA-MB-468
  growth at 10 µM: -19.7%
SF-268
  growth at 10 µM: 18.7%
OVCAR-5
  growth at 10 µM: 66.4%
SK-MEL-2 [1]
  growth at 10 µM: -42.5%
SNB-19
  GI50: 0.86 µM
  LC50 (concentration killing 50% of cells): > 100 µM
  TGI: > 100 µM
SK-MEL-2 [2]
  GI50: 0.389 µM
  LC50 (50% lethal concentration): > 100 µM
  TGI: 4.97 µM
SF-539
  GI50: 0.387 µM
  LC50 (concentration killing 50% of cells): > 100 µM
  TGI: 2.88 µM
BT-549
  GI50: 1.33 µM
  LC50 (50% lethal concentration): > 100 µM
  TGI: > 100 µM
SNB-75
  GI50: 0.575 µM
  LC50 (lethal concentration, 50% net cell kill): > 100 µM
  TGI: > 100 µM
TK-10
  GI50: 7 µM
  TGI: > 100 µM
  CC50: > 100 µM

## O=C(Nc1cccc(-n2cc(-c3ccncc3)c(-c3ccc(Cl)c(O)c3)n2)c1)Nc1ccc(Cl)c(Cl)c1
UACC-62
  GI50: 1.11 µM
  LC50 (50% lethal concentration): 29.2 µM
  TGI: 5.21 µM
M14
  GI50: 1.18 µM
  LC50 (concentration killing 50% of cells): > 32.5 µM
  TGI: 6.97 µM
MDA-MB-468
  growth at 10 µM: 2.25%
SF-268
  growth at 10 µM: 29.1%
OVCAR-5
  growth at 10 µM: 56.4%
SK-MEL-2 [1]
  growth at 10 µM: -25.4%
SNB-19
  GI50: 1.46 µM
  LC50 (concentration killing 50% of cells): > 32.5 µM
  TGI: > 32.5 µM
SK-MEL-2 [2]
  GI50: 1.03 µM
  LC50 (50% lethal concentration): > 32.5 µM
  TGI: 2.64 µM
SF-539
  GI50: 1.34 µM
  LC50 (concentration killing 50% of cells): > 32.5 µM
  TGI: 8.97 µM
BT-549
  GI50: 1.7 µM
  LC50 (50% lethal concentration): > 32.5 µM
  TGI: 16.1 µM
SNB-75
  GI50: 1.09 µM
  LC50 (lethal concentration, 50% net cell kill): > 32.5 µM
  TGI: 12.2 µM
TK-10
  GI50: 1.91 µM
  TGI: > 32.5 µM
  CC50: > 32.5 µM
